Measurements from patent US12227539B2, “Mogroside compounds and uses thereof” (Firmenich SA, priority 2019, dated 2025).

Experiment: Tasting of a sample of the purified compound (taste perceived, sweetness relative to sucrose)
Text: The sweetness intensity perceived was weaker than the sweetness intensity perceived with mogroside V. However, the perception of licorice and lingering profile of isomogroside IVe was weaker than that of mogroside V (see table on following page).

[1] = tasted at a concentration of 250 ppm

| Molecule | taste perceived [1] | sweetness relative to sucrose (tasted at 500 ppm in a water base, approximate) | taste perceived (tasted at a concentration of 500 ppm in a water base) |
| --- | --- | --- | --- |
| (1S,4R,9beta,24R)-1-{[6-O-(beta-D-glucopyranosyl)-beta-D-glucopyranosyl]oxy}-25-hydroxy-9-(hydroxymethyl)-10,14-dimethyl-11-oxo-4,9-cyclo-9,10-secocholest-5-en-24-yl beta-D-glucopyranosyl-(1→2)-[beta-D-glucopyranosyl-(1→6)]-beta-D-glucopyranoside [Compound 5a] | No taste |  |  |
| C[C@H](CC[C@@H](O[C@@H]1O[C@H](CO[C@@H]2O[C@H](CO)[C@@H](O)[C@H](O)[C@H]2O)[C@@H](O)[C@H](O)[C@H]1O[C@@H]1O[C@H](CO)[C@@H](O)[C@H](O)[C@H]1O)C(C)(C)O)[C@H]1CC[C@@]2(C)[C@@H]3CC=C4[C@@H](CC[C@H](O[C@@H]5O[C@H](CO[C@@H]6O[C@H](CO)[C@@H](O)[C@H](O)[C@H]6O)[C@@H](O)[C@H](O)[C@H]5O)C4(C)C)[C@]3(C=O)C(=O)C[C@]12C [Compound 6a, (1S,4R,9beta,24R)-9-formyl-1-{[6-O-(beta-D-glucopyranosyl)-beta-D-glucopyranosyl]oxy}-25-hydroxy-10,14-dimethyl-11-oxo-4,9-cyclo-9,10-secocholest-5-en-24-yl beta-D-glucopyranosyl-(1→2)-[beta-D-glucopyranosyl-(1→6)]-beta-D-glucopyranoside] |  | 100-200 times sweeter than sucrose | strong sweet taste |
| CC(C)(O)[C@@H](CC[C@](C)(O)[C@H]1CC[C@@]2(C)[C@@H]3CC=C4[C@@H](CC[C@H](O[C@@H]5O[C@H](CO)[C@@H](O)[C@H](O)[C@H]5O)C4(C)C)[C@]3(C)C(=O)C[C@]12C)O[C@@H]1O[C@H](CO[C@@H]2O[C@H](CO)[C@@H](O)[C@H](O)[C@H]2O)[C@@H](O)[C@H](O)[C@H]1O [Compound 8a, (1S,4R,9beta,24R)-1-(beta-D-glucopyranosyloxy)-20,25-dihydroxy-9,10,14-trimethyl-11-oxo-4,9-cyclo-9,10-secocholest-5-en-24-yl 6-O-beta-D-glucopyranosyl-beta-D-glucopyranoside] | No taste |  |  |
| [(1S,4R,9beta,10R,24R)-24-{[beta-D-glucopyranosyl-(1→6)-beta-D-glucopyranosyl-(1→6)-beta-D-glucopyranosyl]oxy}-1,25-dihydroxy-9,14-dimethyl-11-oxo-4,9-cyclo-9,10-secocholest-5-en-10-yl]methyl beta-D-glucopyranosyl-(1→6)-[beta-D-glucopyranosyl-(1→4)-beta-D-glucopyranosyl-(1→2)]-beta-D-glucopyranoside [Compound 10a] | No taste |  |  |
| C[C@H](C(O)C[C@@H](O[C@@H]1O[C@H](CO[C@@H]2O[C@H](CO)[C@@H](O)[C@H](O)[C@H]2O)[C@@H](O)[C@H](O)[C@H]1O)C(C)(C)O)[C@H]1CC[C@@]2(C)[C@@H]3CC=C4[C@@H](CC[C@H](O[C@@H]5O[C@H](CO[C@@H]6O[C@H](CO)[C@@H](O)[C@H](O)[C@H]6O)[C@@H](O)[C@H](O)[C@H]5O)C4(C)C)[C@]3(C)[C@H](O)C[C@]12C (stereo partly drawn) [Compound 1a, (1S,4R,9beta,11alpha,24R)-1-{[6-O-(beta-D-glucopyranosyl)-beta-D-glucopyranosyl]oxy}-11,22,25-trihydroxy-9,10,14-trimethyl-4,9-cyclo-9,10-secocholest-5-en-24-yl 6-O-beta-D-glucopyranosyl-beta-D-glucopyranoside] | No taste |  |  |
